Results reported in patent publication US6171786A, “Methods for preventing multidrug resistance in cancer cells” (priority 1996, dated 2001).
“Also recorded” adds a separate entry of the source. Read-outs that look alike come from different tables or passages of the source.

Columns and labels:
tumor [1] = conditions: cited from earlier work
tumor [2] = conditions: nude mice; Meyer et al., 1989; cited from earlier work
PKC = conditions: in words; cited from earlier work
MDR1 expression [3] = experiment: Inhibition of cytotoxic drug-induced MDR1 expression by protein kinase inhibitors (cDNA-PCR)
Method: (§1) Cells were plated in 6-well Falcon tissue culture plates at 3,300 cells per well, and incubated in the appropriate concentrations of drugs. Each of the protein kinase inhibitors to be tested were added at the appropriate final concentration 45 minutes prior to MDR1 induction by the addition of Ara-C or TPA, with the exception of herbimycin A, which was added 12 hours prior to Ara-C or TPA, and tyrphostins A25 and B46, which were each added 16 hours prior to MDR1 induction by the addition of Ara-C or TPA. Cells were incubated overnight (TPA) or for 10 hours (Ara-C) at 37° C./ 5% CO2 after the addition of the MDR1 inducing agents before harvesting for cDNA-PCR analysis.
In addition, the analysis of certain drugs imposed added requirements. For experiments using calphostin C, cells were incubated under direct white light illumination. For experiments using D,L-threo-sphingosine, the cell culture medium was pre-treated with the appropriate concentration of the drug for one hour at 37° C. with continuous gentle mixing. After this pretreatment, cells were resuspended in media supplemented with drug and incubated for 45 minutes as described above.
To further evaluate the capacity of protein kinase inhibitors to suppress MDR1 induction by cytotoxic drugs and PKC agonists, H-9 human T-cell leukemia cells were used in cDNA-PCR assays to examine induced MDR1 mRNA expression levels in the presence of protein kinase inhibitors.

[4] = test system: MDR1 expression (P-glycoprotein); experiment: MDR1/P-glycoprotein expression in human cells treated with TPA, DOG, other agents (Rh123 accumulation, UIC2 staining, cDNA-PCR); type: cell-based
Method: KG1 cell line was maintained in Iscove's modified Dulbecco medium with 20% fetal calf serum (FCS) and 2 mM L-glutamine, 100 units/mL penicillin and 100 μg/mL streptomycin (GIBCO Laboratories, Grand Island, N.Y.).
(§2) PBL were treated with 1 ng/mL TPA; H9 and K562 cells with 10 ng/mL TPA; KG1a and KG1 cells with 100 ng/mL TPA and the other cell lines with 10 ng/mL TPA.
Mouse IgG2a isotype control antibody was obtained from Sigma. For staining of PBL with UIC2 mAb or isotype control, 10^6 cells were stained at 4° C. with 10 μg of the antibody for 30 minutes and, after two washes, stained for 30 minutes with 10 μg of FITC-conjugated goat anti-mouse IgG2a antibody (Fisher Scientific, Fairlawn, N.J.), diluted 1:2 with PBS plus 2% FCS. Cells were then washed twice with ice-cold PBS plus 2% FCS, stained with PI and kept on ice until analysis. Essentially the same protocol was used for staining of other cell types except that 2 μg of the secondary antibody were used per 10^6 cells. In some experiments, phycoerythrine (PE)-conjugated goat anti-mouse IgG2a was used as the secondary antibody; no PI was added in such cases.
(§3) (Commercially-available kits (for example, from GIBCO/BRL, Gaithersburg, Md.) can be advantageously modified for making cDNA using random hexamers.) PCR is then performed using the following primers: […]
(§4) (where β2 M represents β2 microglobulin). PCR was performed for β2 M experiments under a regime consisting of 1 cycle comprising denaturation at 94° C. for 3 minutes, primer annealing at 60° C. for 30 seconds, and primer extension at 72° C. for 1 minute, followed by 19 cycles comprising denaturation at 94° C. for 30 seconds, primer annealing at 60° C. for 30 seconds, and primer extension at 72° C. for 1 minute, followed by a final cycle comprising denaturation at 94° C. for 30 seconds, primer annealing at 60° C. for 30 seconds, and primer extension at 72° C. for 5 minutes. MDR1 cDNA sequences were amplified using the identical protocol as for β2 M, but extending the amplification from 19 cycles to 25 cycles. In addition, the cDNA-PCR amplification protocol contained the following modifications: (i) Taq DNA polymerase was added to the PCR mixtures after initial heating of the samples to 94° C. (ii) The yield of the β2 -microglobulin-specific band, obtained after 22-28 cycles of PCR, was used as the primary criterion for equalizing the starting amounts of the cDNA templates in different preparations, in order to account for differential RNA degradation in cells subjected to different types of treatment. ^32 P-labeled PCR products were detected by autoradiography.
A functional assay was used to detect changes in P-glycoprotein activity in human PBL treated with different agents that induce lymphoid differentiation or activation, based on flow cytometric analysis of cellular accumulation of Rh123, which is a P-glycoprotein-transported fluorescent mitochondrial dye. In this assay, cells expressing little or no P-glycoprotein stain brightly with Rh123, whereas cells with higher levels of P-glycoprotein activity appear Rh123-dull. […] Since the best-known cellular effect of TPA is the stimulation of PKC, DOG (a cell-permeable diacylglycerol and a physiological stimulant of PKC) was also tested to determine its effects on Rh123 accumulation in PBL.

[5] = test system: MDR1 expression (P-glycoprotein); experiment: MDR1/P-glycoprotein expression in mouse hematopoietic cell lines; type: cell-based
Method: as §2
Since PBL comprise a heterogeneous population of many different subtypes, a series of leukemia-derived clonal cells lines were tested for changes in P-glycoprotein expression after treatment with TPA.

MRP expression = experiment: Inhibition of MRP mRNA expression in H-9 cells (cDNA-PCR); type: cell-based, human; conditions: 100 nM
Method: Cells were plated in 6-well Falcon tissue culture plates at 3,300 cells per well, and incubated in the appropriate concentrations of drugs. Each of the protein kinase inhibitors to be tested were added at their appropriate final concentrations, and the cells then incubated for 10 hours at 37° C. under an atmosphere of 5% CO2.
PCR was performed using the following primers: […]
(where β2 M represents β2 microglobulin). PCR was performed for β2 M experiments under a regime consisting of 1 cycle comprising denaturation at 94° C. for 3 minutes, primer annealing at 60° C. for 30 seconds, and primer extension at 72° C. for 1 minute, followed by 19 cycles comprising denaturation at 94° C. for 30 seconds, primer annealing at 60° C. for 30 seconds, and primer extension at 72° C. for 1 minute, followed by a final cycle comprising denaturation at 94° C. for 30 seconds, primer annealing at 60° C. for 30 seconds, and primer extension at 72° C. for 5 minutes.
H-9 cells were used to analyze the effect of various protein kinase inhibitors on the expression of the multidrug resistance associated protein MRP (Grant et al., ibid.).

MDR1 expression [6] = experiment: Inhibition of TPA- or DOG-induced MDR1 expression; type: cell-based, human; conditions: staurosporine 30 nM
Method: as §2, §1

MDR1 expression [7] = experiment: Induction of MDR1 expression by agents that increase intracellular Ca2+; type: cell-based, human; conditions: H9 cells; 10 μg/mL, 10 hrs
Method: H9 cells were seeded into each well of 6-well plates (10^5 cells/well in 3 mL of RPMI-1640 medium/10% fetal bovine serum/2 mM L-glutamine/100 U/mL penicillin and 100 μg/mL streptomycin). Experimental cultures were treated with either the calcium-specific ionophore A23187 or an inhibitor of Ca^2+ -dependent ATPase, thapsigargin. Cells were incubated with 10 μM A23187 or 10 μg/mL thapsigargin for 10 hrs at 37° C., 5% CO2 in a humidified atmosphere. Negative control cultures were incubated as above without the addition of either A23187 or thapsigargin.
After each incubation was complete, steady-state levels of MDR1- and β2 -microglobulin mRNA (internal standard) were determined by RT-PCR as described above in Example 4. PCR products were then analyzed in 7.5% polyacrylamide gel electrophoresis and autoradiographed. […] The absence of the MDR1-specific band and presence of the β2 -microglobulin specific band was consistent with the results on uninduced H9 cells shown above in Examples 4 and 5 and FIGS. 7A through 7F.

[8] = test system: MDR1 expression (P-glycoprotein); experiment: Induction of MDR1 expression by cytotoxic drugs (dye efflux, UIC2, cDNA-PCR); type: cell-based, human
Method: as §3, §4
In particular PKC is activated by treatment with Ara-C. Therefore, experiments were performed to test whether Ara-C, which is not transported by P-glycoprotein, would have any effect on P-glycoprotein function in K562 leukemia cells.
(§5) Also assayed was whether drug-induced MDR1 expression was maintained after cytotoxic drug treatment. […] At different times, MDR1 expression in the surviving cells was analyzed by dye efflux and immunofluorescence labeling with UIC2 (FIG. 3C) or by cDNA-PCR (FIG. 4E).

K562 cells = test system: K562 cells
Method: FIG. 6A. Growth inhibition by vinblastine in untreated and Ara-C (ARA)- or Adriamycin (ADR)-treated cells. Cells were treated as in FIG. 3C and grown in the absence of drugs for six weeks. Vinblastine inhibition assay was carried out for 10 days.
FIG. 6B. Growth inhibition by vinblastine in untreated cells and Rh123-dull and Rh123-bright populations of Ara-C treated cells. […] One week after sorting, vinblastine inhibition assay was carried out for 7 days.
Cells were plated in duplicate in 96-well microtiter plates at 3,000 cells per well, and allowed to grow in increasing concentrations of different drugs.
as §5

Q: Which “optimal total i.p. dose” value (tumor [1]; nine injections at 12 mg/kg/injection) does the source give for `CCN(CC)CCN1C(=O)c2c(c3c4cccc(Cl)c4n([C@@H]4O[C@H](CO)[C@@H](OC)[C@H](O)[C@H]4O)c3c3[nH]c4c(Cl)cccc4c23)C1=O` [BMY 27557, 8-N-(diethylaminoethyl) rebeccamycin] here?
A: The value was 108 mg/kg.

Q: What about the “optimal single i.p. dose” value (tumor [1]; single dose) of the same compound?
A: Its value is 64 mg/kg.

Q: With `CO[C@@H]1[C@H](N(C)C(=O)c2ccccc2)C[C@H]2O[C@]1(C)n1c3ccccc3c3c4c(c5c6ccccc6n2c5c31)C(=O)NC4` [CGP 41 251] as the compound, how does the “dose showing anti-tumor effect relative to MTD” value (tumor [2]) read?
A: The value was “anti-tumor effect at one-tenth of their maximum tolerated doses”.

Q: With `N=C(N)NCCNS(=O)(=O)c1cccc2cnccc12` [HA1004] as the compound, how does the PKC inhibition (PKC) read?
A: The PKC inhibition was “inactive against PKC”.

Q: And the “inhibition of MDR1 induction by cytotoxic drugs” value (MDR1 expression [3])?
A: The value was “totally ineffective”.

Q: Which results are given for `CCCCCCCCCCCCCC(=O)O[C@@H]1[C@@H](C)[C@@]2(O)[C@@H](C=C(CO)C[C@]3(O)C(=O)C(C)=C[C@@H]23)[C@@H]2C(C)(C)[C@]12OC(C)=O` [TPA, 12-o-tetradecanoylphorbol-13-acetate]?
A: increase of MDR1 expression after treatment ([4]; EJ bladder carcinoma cells): increase of MDR1 expression; induction of MDR1 mRNA and P-glycoprotein ([4]; H9 cells): efficiently induced readily detectable levels of MDR1 expression; P-glycoprotein expression after exposure ([4]; KG1 and KG1a cells (P-glycoprotein positive)): large increase in their P-glycoprotein expression; increase of MDR1 expression after treatment ([4]; MCF-7 breast carcinoma cells): increase of MDR1 expression; levels of P-glycoprotein on the cell surface (UIC2) ([4]; human PBL): markedly increased the levels of P-glycoprotein on the cell surface; MDR1 gene expression ([4]; normal human PBL and leukemia/solid tumor cell lines): increase MDR1 gene expression; P-glycoprotein expression after exposure ([5]; and LBRM 33 lymphoma): large increase in their P-glycoprotein expression

Q: What does the source list for `CN[C@@H]1C[C@H]2O[C@@](C)([C@@H]1OC)n1c3ccccc3c3c4c(c5c6ccccc6n2c5c31)C(=O)NC4` [staurosporine]?
A: MRP expression (MRP expression): capable of inhibiting MRP expression; also recorded: strongly inhibited; P-glycoprotein expression, compound alone ([4]; KG1, KG1a (P-glycoprotein positive)): significant increase in P-glycoprotein expression; induction of MDR1 expression, compound alone ([4]; P-glycoprotein-negative H9 cells): did not induce MDR1 expression; P-glycoprotein expression ([4]; some P-glycoprotein-positive cell lines (human; mouse lines also used)): significantly increased P-glycoprotein expression; P-glycoprotein expression, compound alone ([5]; mouse EL4 and LBRM 33 (P-glycoprotein positive)): significant increase in P-glycoprotein expression; inhibition of DOG (diacylglycerol)-induced MDR1 expression (MDR1 expression [6]; H9 cells / P-glycoprotein-negative cells): completely abolished MDR1 induction; also recorded: prevent MDR1 induction; inhibition of TPA-induced MDR1 expression (MDR1 expression [6]; H9 cells): completely abolished MDR1 induction; also recorded: completely inhibited TPA-induced MDR1 expression; also recorded: prevent MDR1 induction; prevention of MDR1 induction by chemotherapeutic drugs (MDR1 expression [3]): prevent MDR1 induction; inhibition of MDR1 induction by cytotoxic drugs (MDR1 expression [3]; concentration not stated): capable of inhibiting MDR1 induction by cytotoxic drugs

Q: With `C/C=C(/C)C(=O)O[C@H]1C(C)=C2[C@H]([C@@H]1OC(=O)CCCCCCC)[C@@](C)(OC(C)=O)C[C@H](OC(=O)CCC)[C@@]1(O)[C@H]2OC(=O)[C@@]1(C)O` [thapsigargin] as the compound, how does the “MDR1 expression (RT-PCR)” value (MDR1 expression [7]) read?
A: Its value is “capable of inducing MDR1 gene expression; also recorded: a clear MDR1-specific band was detected”.

Q: What does the source list for `CC[C@]1(O)C[C@@H]2CN(CCc3c([nH]c4ccccc34)[C@@](C(=O)OC)(c3cc4c(cc3OC)N(C)[C@H]3[C@@](O)(C(=O)OC)[C@H](OC(C)=O)[C@]5(CC)C=CCN6CC[C@]43[C@@H]65)C2)C1` [vinblastine]?
A: MDR1 induction [8]: MDR1 induction, both at the mRNA and at the protein levels, was observed; MDR1 mRNA expression [8]: induce MDR1 mRNA expression; Rh123 or DiOC2(3) efflux by treated cells [8]: 3-10%; increase in resistance (K562 cells): 2-3 fold; increase in the ID10 value (K562 cells): 2-3 fold
